Patent US20040147434A1, “Use of enzyme inhibitors of the dipeptidypeptidase iv (ec3.3.14.5) in addition to the aminopeptidase n (ec 3.4.11.2), individually or in a combination thereof, and pharmaceutical preparations thereof for the prevention and/or therapy of ischaemia-caused acute and chronic neurodegenerative process …” (priority 2001, published 2004)

Legend:
[1] = test system: peripheric mononuclear cells (MNC) or T lymphocytes; details: simultaneous and separate administration of inhibitors of DP IV and APN; cited from earlier work
[2] = test system: hippocampal neurons; assay: Neuroprotection in organotypical hippocampus slices after 40 min oxygen and glucose deprivation (propidium iodide fluorescence); assay type: cell-based, rat; details: exclusively actinonine (10 μm), 24 h before, during and 24 h after ischemia; n=5 experiments
Procedure: FIG. 2: Protective effect of inhibitors of DP IV (I63) and APN (actinonine) on the survival of hippocampal neurons after a transient deprivation of oxygen and glucose: There are shown in the FIG. transmission photographs (respective left sides) and fluorescence photographs (respective right sides) of hippocampus slices 24 h after an experimental ischemia. The intensity of the red fluorescence corresponds to the neuronal cell damage (B, D). The slices shown in FIGS. 2A and 2B were subjected to a 40 min deprivation of oxygen and glucose in the absence of DP IV or APN inhibitors. […] The protective effect occurring at a simultaneous application of I63 and actinonine is significant (P=0,0000; calculated by means of a two side heteroscedastic t test) and is about 62%.
Organotypical hippocampus slices were prepared and cultivated according to Striggow F et al. (Striggow, F, Riek M, Breder J, Henrich-Noak P, Reymann K G, Reiser G (2000). The protease thrombin is an endogenous mediator of hippocampal neuroprotection against ischemia at low concentrations but causes degeneration at high concentrations. Proc. Natl. Acad. Sci. (USA) 97: 2264-2269). […] Only after said time, there occurrs a characteristic red fluorescence, the intensity of which is proportional to the neuronal cell damage. […]

N[C@@H](CCCCNC(=O)OCc1ccc([N+](=O)[O-])cc1)C(=O)N1CCSC1 [I49, Lys[Z(NO2)] thiazolidide]
DNA synthesis and proliferation of human immune cells [1]: inhibited

CCCCC[C@H](CC(=O)NO)C(=O)N[C@H](C(=O)N1CCC[C@H]1CO)C(C)C [actinonine]
protective effect on the survival of hippocampal neurons after transient ischemia [2]: about 34%
DNA synthesis and proliferation of human immune cells [1]: inhibited
